{
  "source": "paper PMC11413503",
  "about": "“SCR‐7952, a highly selective MAT2A inhibitor, demonstrates synergistic antitumor activities in combination with the S‐adenosylmethionine‐competitive or the methylthioadenosine‐cooperative protein arginine methyltransferase 5 inhibitors in methylthioadenosine phosphorylase‐deleted tumors” (MedComm, 2024)",
  "key": {"COX2": {"target": "COX2 (Homo sapiens, UniProt P35354)", "assay": "Mini-profiling panel, non-kinase enzyme", "type": "biochemical", "conditions": "Non-Kinase Enzymes; read-out: COX2 Inhibitor IC50"}, "PDE4D2": {"target": "PDE4D2 (Homo sapiens, UniProt Q08499)", "assay": "Mini-profiling panel, non-kinase enzyme", "type": "biochemical", "conditions": "Non-Kinase Enzymes; read-out: PDE4D2 Inhibitor IC50"}, "[1]": {"tested_on": "KP4 (MTAP-deleted pancreatic cancer cell line)", "assay": "Combination proliferation assay", "type": "cell-based", "conditions": "KP4 cells, 8 days", "protocol": "(§1) Cells were plated in 96‐well cell culture plates and allowed to attach overnight at 37°C in 5% CO2. […] The final concentration of DMSO was 0.1% in media. Cell proliferation was measured using CellTiter‐Glo Cell Viability Assay (Promega). The IC50 values were calculated using the GraphPad Prism 9. Drug combination effects were analyzed using Combenefit software.[45]"}, "MAOA": {"target": "MAOA (Homo sapiens, UniProt P21397)", "assay": "Mini-profiling panel, non-kinase enzyme", "type": "biochemical", "conditions": "Non-Kinase Enzymes; read-out: MAOA Inhibitor IC50"}, "HRH1": {"target": "HRH1 (Homo sapiens, UniProt P35367)", "sequence (P35367 whole entry, species assumed)": "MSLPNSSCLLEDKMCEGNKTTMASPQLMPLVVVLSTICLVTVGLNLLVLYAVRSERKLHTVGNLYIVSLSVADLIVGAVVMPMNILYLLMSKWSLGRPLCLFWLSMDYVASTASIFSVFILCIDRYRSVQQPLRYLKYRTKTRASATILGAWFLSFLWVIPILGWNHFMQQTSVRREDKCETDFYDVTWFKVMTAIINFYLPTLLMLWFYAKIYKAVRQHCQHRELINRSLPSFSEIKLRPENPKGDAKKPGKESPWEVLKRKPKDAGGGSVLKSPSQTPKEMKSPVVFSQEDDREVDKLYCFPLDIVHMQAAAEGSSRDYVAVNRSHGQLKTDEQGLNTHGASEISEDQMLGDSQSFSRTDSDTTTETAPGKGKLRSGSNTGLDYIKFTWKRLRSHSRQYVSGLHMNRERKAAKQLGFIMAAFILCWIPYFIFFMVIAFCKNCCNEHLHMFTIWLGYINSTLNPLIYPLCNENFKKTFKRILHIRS", "assay": "Mini-profiling panel, GPCR", "type": "cell-based", "conditions": "GPCR Targets"}, "ROCK1": {"target": "ROCK1 (Homo sapiens, UniProt Q13464)", "assay": "Mini-profiling panel, kinase", "type": "biochemical", "conditions": "Kinases; read-out: ROCK1 Inhibitor IC50"}, "MAT2A protein expression": {"tested_on": "MAT2A protein expression", "assay": "Immunoblot of MAT2A protein expression", "type": "cell-based", "conditions": "96 h, HCT116 MTAP−/− and WT cells"}, "LCK": {"target": "LCK (Homo sapiens, UniProt P06239)", "assay": "Mini-profiling panel, kinase", "type": "biochemical", "conditions": "Kinases; read-out: LCK Inhibitor IC50"}, "HCT116 MTAP−/− cells [2]": {"tested_on": "HCT116 MTAP−/− cells", "assay": "Combination proliferation assay with PRMT5 inhibitors (Bliss model)", "type": "cell-based", "conditions": "8 days", "protocol": "as §1"}, "AChE": {"target": "AChE (Homo sapiens, UniProt P22303)", "assay": "Mini-profiling panel, non-kinase enzyme", "type": "biochemical", "conditions": "Non-Kinase Enzymes; read-out: AChE Inhibitor IC50"}, "HCT116 MTAP−/− cells [3]": {"tested_on": "HCT116 MTAP−/− cells", "assay": "Intracellular SAM inhibition assay", "type": "cell-based", "conditions": "Homo sapiens, HCT-116; HCT116 MTAP−/− cells, 6 h treatment; read-out: IC50, cellular SAM levels", "protocol": "MAT2A inhibition in the cellular environment was monitored by measurement of the abundance of its product SAM in HCT116 MTAP ^−/− cells. HCT116 MTAP ^−/− cells were plated in 96‐well cell culture plates at 50,000 cells per well and allowed to attach overnight at 37°C in 5% CO2. Compounds were added in a dose–response format to generate a 10‐point dose–response curve. Doses were started at a 10 µM top concentration with 1:5 serial dilution. After 6 h of incubation, the medium was removed and cells were extracted with 50% methanol containing 1 M acetic acid for SAM metabolite measurement by UPLC‐MS/MS.\nThe standard SAM solution was prepared in a surrogate matrix of 50% methanol containing 1 M acetic acid with a concentration range of 3–1000 ng/mL. The quality control sample was prepared in the same surrogate matrix. SAM‐d 3 was used as the internal standard (IS). A Waters UPLC system coupled with a SCIEX Triple Quad™ 6500^+ mass spectrometer […] was used to analyze the samples. Samples were separated on an ACQUITY UPLC® BEH amide column (2.1 × 50 mm, 1.7 µm). The mobile phase consisted of 5% acetonitrile containing 5 mM NH4OAc and 1% (v/v) formic acid (A) and 95% acetonitrile containing 5 mM NH4OAc and 1% (v/v) formic acid (B). […] SAM and SAM‐d 3 were detected with multiple‐reaction monitoring of a mass transition pair at m/z 399.2/250.2 and […], respectively."}, "COX1": {"target": "COX1 (Homo sapiens, UniProt P23219)", "assay": "Mini-profiling panel, non-kinase enzyme", "type": "biochemical", "conditions": "Non-Kinase Enzymes; read-out: COX1 Inhibitor IC50"}, "HTR3A": {"target": "HTR3A (Homo sapiens, UniProt P46098)", "sequence (P46098 24-478, species assumed)": "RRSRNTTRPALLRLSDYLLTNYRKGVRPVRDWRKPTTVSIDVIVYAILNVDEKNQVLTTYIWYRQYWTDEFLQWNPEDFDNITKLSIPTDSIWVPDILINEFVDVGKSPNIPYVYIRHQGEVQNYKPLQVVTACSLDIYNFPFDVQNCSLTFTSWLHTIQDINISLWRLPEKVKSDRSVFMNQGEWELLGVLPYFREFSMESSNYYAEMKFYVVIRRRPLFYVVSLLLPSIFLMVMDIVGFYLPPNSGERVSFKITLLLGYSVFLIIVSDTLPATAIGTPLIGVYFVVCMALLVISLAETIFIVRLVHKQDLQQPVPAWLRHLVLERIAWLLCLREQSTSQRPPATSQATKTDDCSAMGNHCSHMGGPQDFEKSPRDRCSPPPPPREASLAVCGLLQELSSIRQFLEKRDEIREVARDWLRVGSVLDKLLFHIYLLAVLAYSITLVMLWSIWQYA", "assay": "Mini-profiling panel, ion channel", "type": "cell-based", "protocol": "(§2) Further insight into selectivity was evaluated in a functional panel of 47 representative targets closely related to human life activities, including G protein‐coupled receptors, transporters, ion channels, kinases, nuclear hormone receptor targets, and nonkinase enzymes (Table S3)."}, "NAV1.5": {"target": "NAV1.5 (Homo sapiens, UniProt Q14524)", "assay": "Mini-profiling panel, ion channel", "type": "cell-based", "protocol": "as §2"}, "nAChR(a4/b2)": {"target": "nAChR(a4/b2) (Homo sapiens, UniProt P17787+P43681)", "sequence (P43681 29-627 limits assumed)": "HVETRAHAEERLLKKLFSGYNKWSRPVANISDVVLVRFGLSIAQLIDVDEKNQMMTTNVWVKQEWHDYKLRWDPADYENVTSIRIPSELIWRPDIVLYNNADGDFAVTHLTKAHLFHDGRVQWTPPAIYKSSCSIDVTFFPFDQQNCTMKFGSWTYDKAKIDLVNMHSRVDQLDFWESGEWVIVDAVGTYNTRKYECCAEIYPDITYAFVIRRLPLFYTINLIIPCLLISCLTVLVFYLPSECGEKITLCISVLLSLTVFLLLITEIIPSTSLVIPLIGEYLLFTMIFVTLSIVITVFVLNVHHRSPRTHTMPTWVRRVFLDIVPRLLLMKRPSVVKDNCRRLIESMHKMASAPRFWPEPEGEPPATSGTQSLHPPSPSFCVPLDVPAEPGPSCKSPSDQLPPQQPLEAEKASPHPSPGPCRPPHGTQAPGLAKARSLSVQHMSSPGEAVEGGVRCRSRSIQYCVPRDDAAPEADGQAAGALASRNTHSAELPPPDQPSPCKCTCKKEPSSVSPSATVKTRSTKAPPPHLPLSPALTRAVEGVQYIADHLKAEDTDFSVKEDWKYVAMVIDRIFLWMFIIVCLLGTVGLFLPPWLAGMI", "sequence (P17787 26-502)": "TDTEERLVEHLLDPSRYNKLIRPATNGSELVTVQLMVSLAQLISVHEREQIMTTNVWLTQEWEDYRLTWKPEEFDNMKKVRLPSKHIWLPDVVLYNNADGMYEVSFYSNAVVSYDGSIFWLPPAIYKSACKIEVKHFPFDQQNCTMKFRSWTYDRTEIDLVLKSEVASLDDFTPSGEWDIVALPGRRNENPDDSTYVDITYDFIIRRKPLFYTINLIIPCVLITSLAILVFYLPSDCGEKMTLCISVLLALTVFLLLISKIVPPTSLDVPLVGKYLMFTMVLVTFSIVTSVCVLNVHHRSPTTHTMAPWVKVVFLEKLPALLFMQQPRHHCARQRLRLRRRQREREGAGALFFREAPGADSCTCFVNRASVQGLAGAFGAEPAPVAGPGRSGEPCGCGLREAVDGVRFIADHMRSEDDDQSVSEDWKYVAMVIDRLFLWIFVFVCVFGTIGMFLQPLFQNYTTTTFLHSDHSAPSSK", "assay": "Mini-profiling panel, ion channel", "type": "cell-based", "protocol": "as §2"}, "KvLQT1/mink": {"target": "KvLQT1/mink (Homo sapiens, UniProt P51787)", "sequence (P51787 whole entry)": "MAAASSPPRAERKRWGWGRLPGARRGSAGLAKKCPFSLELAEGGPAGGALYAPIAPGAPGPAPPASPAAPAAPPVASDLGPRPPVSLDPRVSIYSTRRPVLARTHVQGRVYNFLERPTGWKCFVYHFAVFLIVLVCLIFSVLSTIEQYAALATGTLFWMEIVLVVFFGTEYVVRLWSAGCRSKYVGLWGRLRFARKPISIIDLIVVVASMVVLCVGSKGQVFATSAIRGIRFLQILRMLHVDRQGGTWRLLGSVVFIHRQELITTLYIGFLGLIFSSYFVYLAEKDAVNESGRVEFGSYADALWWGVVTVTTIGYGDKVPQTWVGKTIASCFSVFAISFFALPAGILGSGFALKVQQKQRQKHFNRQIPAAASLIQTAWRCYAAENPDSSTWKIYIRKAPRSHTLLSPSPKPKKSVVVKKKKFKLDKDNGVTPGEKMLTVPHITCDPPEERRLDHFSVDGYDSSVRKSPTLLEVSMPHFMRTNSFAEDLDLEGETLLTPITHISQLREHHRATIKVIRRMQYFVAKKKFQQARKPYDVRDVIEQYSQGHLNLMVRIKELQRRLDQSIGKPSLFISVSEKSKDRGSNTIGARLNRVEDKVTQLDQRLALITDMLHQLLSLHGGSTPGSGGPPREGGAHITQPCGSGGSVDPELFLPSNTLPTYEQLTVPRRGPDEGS", "assay": "Mini-profiling panel, ion channel", "type": "cell-based", "protocol": "as §2"}, "NMDAR (1A/2B)": {"target": "NMDAR (1A/2B) (Homo sapiens, UniProt Q05586+Q13224)", "sequence (Q13224 27-1484, other chains not shown)": "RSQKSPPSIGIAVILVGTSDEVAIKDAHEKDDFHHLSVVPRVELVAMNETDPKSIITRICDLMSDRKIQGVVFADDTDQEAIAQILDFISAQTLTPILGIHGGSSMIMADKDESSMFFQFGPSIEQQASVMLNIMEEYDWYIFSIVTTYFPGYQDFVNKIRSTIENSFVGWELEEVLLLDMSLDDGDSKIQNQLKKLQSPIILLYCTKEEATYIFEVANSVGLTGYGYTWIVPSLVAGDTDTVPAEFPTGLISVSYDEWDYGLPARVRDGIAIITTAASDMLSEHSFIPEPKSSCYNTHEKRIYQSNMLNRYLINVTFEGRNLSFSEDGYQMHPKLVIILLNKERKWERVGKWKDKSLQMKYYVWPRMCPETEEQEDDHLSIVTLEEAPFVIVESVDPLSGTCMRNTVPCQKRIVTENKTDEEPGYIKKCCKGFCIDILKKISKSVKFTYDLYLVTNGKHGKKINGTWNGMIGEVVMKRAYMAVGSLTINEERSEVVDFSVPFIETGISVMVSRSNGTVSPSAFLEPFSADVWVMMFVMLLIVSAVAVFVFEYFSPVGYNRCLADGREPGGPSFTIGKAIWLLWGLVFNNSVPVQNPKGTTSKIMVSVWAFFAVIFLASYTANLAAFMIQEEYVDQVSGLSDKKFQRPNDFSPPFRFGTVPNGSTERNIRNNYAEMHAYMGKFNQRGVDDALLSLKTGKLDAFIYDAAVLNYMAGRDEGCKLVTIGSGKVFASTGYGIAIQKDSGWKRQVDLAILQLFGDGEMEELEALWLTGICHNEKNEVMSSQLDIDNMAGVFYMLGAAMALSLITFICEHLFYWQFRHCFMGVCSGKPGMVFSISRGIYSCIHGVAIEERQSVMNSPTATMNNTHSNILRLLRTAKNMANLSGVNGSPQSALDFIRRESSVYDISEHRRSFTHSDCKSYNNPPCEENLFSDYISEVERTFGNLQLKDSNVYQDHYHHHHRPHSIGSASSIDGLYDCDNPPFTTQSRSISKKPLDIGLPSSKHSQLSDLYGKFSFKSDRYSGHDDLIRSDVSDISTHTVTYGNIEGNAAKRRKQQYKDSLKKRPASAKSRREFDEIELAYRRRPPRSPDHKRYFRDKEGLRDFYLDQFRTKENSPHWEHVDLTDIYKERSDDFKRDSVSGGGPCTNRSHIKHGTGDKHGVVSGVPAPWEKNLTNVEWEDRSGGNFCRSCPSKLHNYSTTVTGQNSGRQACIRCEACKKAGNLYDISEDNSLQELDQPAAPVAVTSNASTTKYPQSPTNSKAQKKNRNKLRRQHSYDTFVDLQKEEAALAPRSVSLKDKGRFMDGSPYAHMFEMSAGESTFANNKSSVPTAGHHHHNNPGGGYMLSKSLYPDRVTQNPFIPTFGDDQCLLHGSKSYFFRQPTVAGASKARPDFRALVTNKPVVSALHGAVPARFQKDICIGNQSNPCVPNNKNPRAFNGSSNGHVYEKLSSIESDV", "assay": "Mini-profiling panel, ion channel", "type": "cell-based", "protocol": "as §2"}, "[4]": {"assay": "Plasma bilirubin in mice after oral treatment", "type": "in vivo", "conditions": "SCR-7952 1.0 mg/kg, 14 days oral treatment, 2 h after final dose"}, "AVPR1A": {"target": "AVPR1A (Homo sapiens, UniProt P37288)", "sequence (P37288 whole entry, species assumed)": "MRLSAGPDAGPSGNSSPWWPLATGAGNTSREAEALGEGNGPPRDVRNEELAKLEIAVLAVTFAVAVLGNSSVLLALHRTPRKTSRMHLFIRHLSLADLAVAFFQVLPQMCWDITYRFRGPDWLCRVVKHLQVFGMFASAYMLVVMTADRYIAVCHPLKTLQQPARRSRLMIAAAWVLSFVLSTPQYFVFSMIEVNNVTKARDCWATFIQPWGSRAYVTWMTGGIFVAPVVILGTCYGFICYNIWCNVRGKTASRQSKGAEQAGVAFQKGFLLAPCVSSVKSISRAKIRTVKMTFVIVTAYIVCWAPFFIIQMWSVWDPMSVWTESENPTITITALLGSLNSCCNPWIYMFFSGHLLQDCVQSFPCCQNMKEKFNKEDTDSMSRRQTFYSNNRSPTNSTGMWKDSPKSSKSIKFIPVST", "assay": "Mini-profiling panel, GPCR", "type": "cell-based", "conditions": "GPCR Targets"}, "human UGT1A1": {"target": "human UGT1A1 (Homo sapiens, UniProt P22309)", "assay": "UGT1A1 biochemical assay"}, "[5]": {"assay": "Functional panel of 47 representative targets", "conditions": "at 10 µM"}, "PDE3A": {"target": "PDE3A (Homo sapiens, UniProt Q14432)", "assay": "Mini-profiling panel, non-kinase enzyme", "type": "biochemical", "conditions": "Non-Kinase Enzymes; read-out: PDE3A Inhibitor IC50"}},
  "data": [
    {"smiles": "Cn1cnc2c(=O)n(-c3cccnc3C3CC3)c3cc(Cl)ccc3c21", "note": "[SCR‐7952, 7‐chloro‐5‐(2‐cyclopropylpyridin‐3‐yl)‐1‐methyl‐1,5‐dihydro‐4H‐imidazo[4,5‐c]quinolin‐4‐one]", "values": [
      {"measurement": "IC50", "setting": "COX2", "result": "> 10", "unit": "µM"},
      {"measurement": "IC50", "setting": "PDE4D2", "result": "> 10", "unit": "µM"},
      {"measurement": "interaction in combination with JNJ-64619178 on KP4", "setting": "[1]", "result": "synergistic effect was also observed"},
      {"measurement": "IC50", "setting": "MAOA", "result": "> 10", "unit": "µM"},
      {"measurement": "EC50", "setting": "HRH1; read-out: HRH1 Agonism EC50", "result": "> 10", "unit": "µM"},
      {"measurement": "IC50", "setting": "HRH1; read-out: HRH1 Antagonism IC50", "result": "> 10", "unit": "µM"},
      {"measurement": "IC50", "setting": "ROCK1", "result": "> 10", "unit": "µM"},
      {"measurement": "expression of MAT2A protein", "setting": "MAT2A protein expression", "result": "upregulated"},
      {"measurement": "IC50", "setting": "LCK", "result": "> 10", "unit": "µM"},
      {"measurement": "interaction on cell growth in combination with JNJ-64619178", "setting": "HCT116 MTAP−/− cells [2]", "result": "synergistic interactions"},
      {"measurement": "interaction on cell growth in combination with MRTX-1719", "setting": "HCT116 MTAP−/− cells [2]", "result": "synergistic interactions"},
      {"measurement": "synergistic effect in combination with GSK3326595", "setting": "HCT116 MTAP−/− cells [2]", "result": "much weaker"},
      {"measurement": "IC50", "setting": "AChE", "result": "> 10", "unit": "µM"},
      {"measurement": "IC50", "setting": "HCT116 MTAP−/− cells [3]", "result": 1.9, "unit": "nM"},
      {"measurement": "IC50", "setting": "COX1", "result": "> 10", "unit": "µM"},
      {"measurement": "EC50", "setting": "HTR3A", "result": "> 10", "unit": "µM"},
      {"measurement": "IC50", "setting": "HTR3A", "result": "> 10", "unit": "µM"},
      {"measurement": "IC50", "setting": "NAV1.5", "result": "> 10", "unit": "µM"},
      {"measurement": "EC50", "setting": "nAChR(a4/b2)", "result": "> 10", "unit": "µM"},
      {"measurement": "IC50", "setting": "nAChR(a4/b2)", "result": "> 10", "unit": "µM"},
      {"measurement": "EC50", "setting": "KvLQT1/mink", "result": "> 10", "unit": "µM"},
      {"measurement": "IC50", "setting": "KvLQT1/mink", "result": "> 10", "unit": "µM"},
      {"measurement": "EC50", "setting": "NMDAR (1A/2B)", "result": "> 10", "unit": "µM"},
      {"measurement": "IC50", "setting": "NMDAR (1A/2B)", "result": "> 10", "unit": "µM"},
      {"measurement": "effect on mice plasma levels of bilirubin", "setting": "[4]", "result": "no significant effect"},
      {"measurement": "EC50", "setting": "AVPR1A; read-out: AVPR1A Agonism EC50", "result": "> 10", "unit": "µM"},
      {"measurement": "IC50", "setting": "AVPR1A; read-out: AVPR1A Antagonism IC50", "result": "> 10", "unit": "µM"},
      {"measurement": "IC50", "setting": "human UGT1A1", "result": "> 100", "unit": "µM"},
      {"measurement": "agonistic or antagonistic activities on 47 targets", "setting": "[5]", "result": "did not exhibit significant pharmacological effects"},
      {"measurement": "IC50", "setting": "PDE3A", "result": "> 10", "unit": "µM"}
    ]}
  ]
}
